Assay results reported in patent US11161856B2 (H. Lundbeck A/S, priority 2017, dated 2021).

What was measured:
ABHD6 = molecular target: T1, ABHD6 (Mus musculus, UniProt Q8R2Y0); test: In vitro competitive activity-based protein profiling, mouse brain proteome (ABHD6); assay type: biochemical; details: mouse brain proteome; concentration not given (μM)
T1 construct: Brain; from tissue; host or cells: mouse brain proteome
T1 sequence (Q8R2Y0 1-336): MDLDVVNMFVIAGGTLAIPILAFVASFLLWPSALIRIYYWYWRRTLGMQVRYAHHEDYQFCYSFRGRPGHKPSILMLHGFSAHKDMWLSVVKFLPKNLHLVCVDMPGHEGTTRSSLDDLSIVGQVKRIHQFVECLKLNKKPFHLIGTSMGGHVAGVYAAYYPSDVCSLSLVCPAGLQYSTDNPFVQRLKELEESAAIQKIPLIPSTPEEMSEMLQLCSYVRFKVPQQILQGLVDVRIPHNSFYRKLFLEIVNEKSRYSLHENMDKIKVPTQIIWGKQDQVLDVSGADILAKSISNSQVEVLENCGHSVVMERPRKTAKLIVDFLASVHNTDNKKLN
Procedure: [The source words this procedure for another target and reports this target under the same test.] In Vitro Competitive Activity-Based Protein Profiling.
Proteomes (human prefrontal cortex or cell membrane fractions) (50 μL, 1.0 mg/mL total protein concentration) were preincubated with varying concentrations of inhibitors at 37° C. After 30 min, FP-Rh or HT-01 (1.0 μL, 50 μM in DMSO) was added and the mixture was incubated for another 30 min at room temperature. Reactions were quenched with SDS loading buffer (15 μL-4×) and run on SDS-PAGE.

MGLL = molecular target: T2, MGLL (Mus musculus, UniProt O35678); test: In vitro competitive activity-based protein profiling, mouse brain proteome (MGLL); assay type: biochemical; details: concentration not given (μM)
T2 construct: Brain; from tissue; host or cells: mouse brain proteome
T2 sequence (O35678 1-303): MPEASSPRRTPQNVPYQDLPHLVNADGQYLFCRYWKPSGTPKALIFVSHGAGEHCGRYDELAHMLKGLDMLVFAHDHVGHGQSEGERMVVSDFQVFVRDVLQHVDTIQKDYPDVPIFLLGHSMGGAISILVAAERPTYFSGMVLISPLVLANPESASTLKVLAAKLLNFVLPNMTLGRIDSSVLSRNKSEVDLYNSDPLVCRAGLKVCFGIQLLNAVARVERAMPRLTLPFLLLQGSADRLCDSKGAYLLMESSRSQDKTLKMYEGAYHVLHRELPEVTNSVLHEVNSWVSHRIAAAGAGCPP

SMILES	% Inh ABHD6 Brain (Mouse, μM) (ABHD6)	% Inh MGLL Brain (Mouse, μM) (MGLL)
O=C(OC(C(F)(F)F)C(F)(F)F)N1CCC2(CC1)CN(Cc1c(Cl)cccc1N1CCCCC1)C2 [Example 45, 1,1,1,3,3,3-Hexafluoropropan-2-yl 2-(2-chloro-6-(piperidin-1-yl)benzyl)-2,7-diazaspiro[3,5]nonane-7-carboxylate]	### (### is ≥75%)	### (### is ≥75%)
O=C(OC(C(F)(F)F)C(F)(F)F)N1CCC2(CC1)CN(Cc1c(Cl)cccc1N1CCOCC1)C2 [Example 46, 1,1,1,3,3,3-Hexafluoropropan-2-yl 2-(2-chloro-6-morpholinobenzyl)-2,7-diazaspiro[3.5]nonane-7-carboxylate]	### (### is ≥75%)	### (### is ≥75%)
O=C(OC(C(F)(F)F)C(F)(F)F)N1CCC2(CC1)CN(Cc1c(Cl)cccc1N1CCC(F)CC1)C2 [Example 47, 1,1,1,3,3,3-Hexafluoropropan-2-yl 2-(2-chloro-6-(4-fluoropiperidin-1-yl)benzyl)-2,7-diazaspiro[3.5]nonane-7-carboxylate]	### (### is ≥75%)	### (### is ≥75%)
O=C(OC(C(F)(F)F)C(F)(F)F)N1CCC2(CC1)CN(Cc1c(Cl)cccc1N1CCC3(CCOCC3)C1)C2 [Example 48, 1,1,1,3,3,3-Hexafluoropropan-2-yl 2-(2-chloro-6-(8-oxa-2-azaspiro[4.5]decan-2-yl)benzyl)-2,7-diazaspiro[3.5]nonane-7-carboxylate]	### (### is ≥75%)	### (### is ≥75%)
CC(=O)N1CCN(c2cccc(Cl)c2CN2CC3(CCN(C(=O)OC(C(F)(F)F)C(F)(F)F)CC3)C2)CC1 [Example 49, 1,1,1,3,3,3-Hexafluoropropan-2-yl 2-(2-(4-acetylpiperazin-1-yl)-6-chlorobenzyl)-2,7-diazaspiro[3.5]nonane-7-carboxylate]	### (### is ≥75%)	### (### is ≥75%)
CCN1CCN(c2cccc(Cl)c2CN2CC3(CCN(C(=O)OC(C(F)(F)F)C(F)(F)F)CC3)C2)CC1 [Example 50, 1,1,1,3,3,3-Hexafluoropropan-2-yl 2-(2-chloro-6-(4-ethylpiperazin-1-yl)benzyl)-2,7-diazaspiro[3.5]nonane-7-carboxylate]	### (### is ≥75%)	### (### is ≥75%)
O=C(OC(C(F)(F)F)C(F)(F)F)N1CCC2(CC1)CN(Cc1c(N3CCC(F)CC3)cccc1C(F)(F)F)C2 [Example 51, 1,1,1,3,3,3-Hexafluoropropan-2-yl 2-(2-(4-fluoropiperidin-1-yl)-6-(trifluoromethyl)benzyl)-2,7-diazaspiro[3,5]nonane-7-carboxylate]	### (### is ≥75%)	### (### is ≥75%)
O=C(OC(C(F)(F)F)C(F)(F)F)N1CCC2(CC1)CN(Cc1c(N3CCC4(CCOCC4)C3)cccc1C(F)(F)F)C2 [Example 52, 1,1,1,3,3,3-Hexafluoropropan-2-yl 2-(2-(8-oxa-2-azaspiro[4.5]decan-2-yl)-6-(trifluoromethyl)benzyl)-2,7-diazaspiro[3.5]nonane-7-carboxylate]	### (### is ≥75%)	### (### is ≥75%)
CS(=O)(=O)N1CCN(c2cccc(C(F)(F)F)c2CN2CC3(CCN(C(=O)OC(C(F)(F)F)C(F)(F)F)CC3)C2)CC1 [Example 53, 1,1,1,3,3,3-Hexafluoropropan-2-yl 2-(2-(4-(methylsulfonyl)piperazin-1-yl)-6-(trifluoromethyl)benzyl)-2,7-diazaspiro[3.5]nonane-7-carboxylate]	### (### is ≥75%)	### (### is ≥75%)
CCN1CCN(c2cccc(C(F)(F)F)c2CN2CC3(CCN(C(=O)OC(C(F)(F)F)C(F)(F)F)CC3)C2)CC1 [Example 54, 1,1,1,3,3,3-Hexafluoropropan-2-yl 2-(2-(4-ethylpiperazin-1-yl)-6-(trifluoromethyl)benzyl)-2,7-diazaspiro[3.5]nonane-7-carboxylate]	# (# is ≤25%)	### (### is ≥75%)
O=C(OC(C(F)(F)F)C(F)(F)F)N1CC2(CCN(Cc3ccc(Cl)c(Cl)c3)CC2)C1 [Example 55, 1,1,1,3,3,3-Hexafluoropropan-2-yl 7-(3,4-dichlorobenzyl)-2,7-diazaspiro[3,5]nonane-2-carboxylate]	### (### is ≥75%)	## (## is between 25 and 75%)
O=C(OC(C(F)(F)F)C(F)(F)F)N1CC2(CCN(Cc3ccc(C(F)(F)F)cc3)CC2)C1 [Example 56, 1,1,1,3,3,3-Hexafluoropropan-2-yl 7-(4-(trifluoromethyl)benzyl)-2,7-diazaspiro[3.5]nonane-2-carboxylate]	### (### is ≥75%)	## (## is between 25 and 75%)
O=C(OC(C(F)(F)F)C(F)(F)F)N1CCC2(CC1)CN(Cc1c(Cl)cccc1N1CC3COCC3C1)C2 (stereo not shown) [Example 57, 1,1,1,3,3,3-Hexafluoropropan-2-yl 2-(2-chloro-6-(tetrahydro-1H-furo[3,4-c]pyrrol-5(3H)-yl)benzyl)-2,7-diazaspiro[3.5]nonane-7-carboxylate]	### (### is ≥75%)	### (### is ≥75%)
O=C(OC(C(F)(F)F)C(F)(F)F)N1CCC2(CC1)CN(Cc1c(Cl)cccc1N1CCN(C3CC3)CC1)C2 [Example 58, 1,1,1,3,3,3-Hexafluoropropan-2-yl 2-(2-chloro-6-(4-cyclopropvlpiperazin-1-yl)benzyl)-2,7-diazaspiro[3.5]nonane-7-carboxylate]	### (### is ≥75%)	### (### is ≥75%)
CC(=O)N1CCN(c2cccc(C(F)(F)F)c2CN2CC3(CCN(C(=O)OC(C(F)(F)F)C(F)(F)F)CC3)C2)CC1 [Example 59, 1,1,1,3,3,3-Hexafluoropropan-2-yl 2-(2-(4-acetylpiperazin-1-yl)-6-(trifluoromethyl)benzyl)-2,7-diazaspiro[3.5]nonane-7-carboxylate]	### (### is ≥75%)	### (### is ≥75%)
O=C(OC(C(F)(F)F)C(F)(F)F)N1CCC2(CC1)CN(Cc1c(N3CCN(C4CC4)CC3)cccc1C(F)(F)F)C2 [Example 60, 1,1,1,3,3,3-Hexafluoropropan-2-yl 2-(2-(4-cyclopropylpiperazin-1-yl)-6-(trifluoromethyl)benzyl)-2,7-diazaspiro[3.5]nonane-7-carboxylate]	### (### is ≥75%)	### (### is ≥75%)
CS(=O)(=O)N1CCC2(CCN(c3cccc(Cl)c3CN3CC4(CCN(C(=O)OC(C(F)(F)F)C(F)(F)F)CC4)C3)CC2)C1 [Example 61, 1,1,1,3,3,3-Hexafluoropropan-2-yl 2-(2-chloro-6-(2-(methylsulfonyl)-2,8-diazaspiro[4.5]decan-8-yl)benzyl)-2,7-diazaspiro[3.5]nonane-7-carboxylate]	### (### is ≥75%)	### (### is ≥75%)
CS(=O)(=O)N1CCC2(CCN(c3cccc(C(F)(F)F)c3CN3CC4(CCN(C(=O)OC(C(F)(F)F)C(F)(F)F)CC4)C3)CC2)C1 [Example 62, 1,1,1,3,3,3-Hexafluoropropan-2-yl 2-(2-(2-(methylsulfonyl)-2,8-diazaspiro[4.5]decan-8-yl)-6-(trifluoromethyl)benzyl)-2,7-diazaspiro[3.5]nonane-7-carboxylate]	### (### is ≥75%)	### (### is ≥75%)
CN(Cc1ccc(C(F)(F)F)cc1N1CCOCC1)C1(C)CCN(C(=O)OC(C(F)(F)F)C(F)(F)F)CC1 [Example 63, 1,1,1,3,3,3-Hexafluoropropan-2-yl 4-methyl-4-(methyl(2-morpholino-4-(trifluoromethyl)benzyl)amino) piperidine-1-carboxylate]	### (### is ≥75%)	### (### is ≥75%)
O=C(OC(C(F)(F)F)C(F)(F)F)N1CC2(CCN(Cc3cccc(Oc4ccccc4)c3)CC2)C1 [Example 64, 1,1,1,3,3,3-Hexafluoropropan-2-yl 7-(3-phenoxybenzyl)-2,7-diazaspiro[3,5]nonane-2-carboxylate]	### (### is ≥75%)	## (## is between 25 and 75%)
